Assay results from patent US6355799B1, “Substituted benzene compounds, process for their preparation, and herbicidal and defoliant compositions containing them” (ISK Americas Incorporated, priority 1997, dated 2002).

Columns and labels:
Format in all cases: in vivo
[1] = tested on: upland rice (Oryza sp., var. Tebonnet, RICE); assay: Post-emerge test, crop safety; conditions: post-emerge, 14 days after application, rating scale 0-100
Outline: (§1)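 Herbicidal damage is scored 0 (none) to 100 (complete plant death) two weeks after a simulated field spray. Rates span 15–1000 g ai/ha, delivered in acetone at 187 l/ha. For post-emergence treatments, plants have 2–3 leaves and the spray carries 0.25% v/v non-ionic surfactant.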

[2] = tested on: field corn (Zea mays L., var. Dekalb 535, CORN); assay: Post-emerge test, crop safety; conditions: post-emerge, 14 days after application, rating scale 0-100
Outline: as §1

[3] = tested on: redroot pigweed (Amaranthus retroflexus, AMARE); assay: Pre-emerge test, greenhouse herbicide activity screening; conditions: rated 14 days after application, 0 = no damage, 100 = complete death
Outline: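 Plants grown in 10 cm pots of sandy loam mix received acetone-dissolved compounds through a moving flat-fan nozzle. Doses ranged from 15 to 1000 g ai/ha. Pre-emerge pots were seeded one day earlier, post-emerge pots 8–21 days earlier. Fourteen days on, each pot was graded 0–100 for damage.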

[4] = tested on: upland rice (Oryza sp., var. Tebonnet, RICE); assay: Pre-emerge test, crop safety; conditions: rated 14 days after application, 0 = no damage, 100 = complete death
Outline: (§2)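 Sandy loam pots; pre-emerge: sown 1 d pre-spray, surface-watered after, then bottom-watered. Post-emerge: sown 8–21 d before, 2–3 leaf stage, + 0.25% v/v NIS, bottom-watered. Acetone, 187 l/ha track spray, 15–1000 g ai/ha. 0–100 injury score, day 14.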

[5] = tested on: field corn (Zea mays L., var. Dekalb 535, CORN); assay: Pre-emerge test, crop safety; conditions: rated 14 days after application, 0 = no damage, 100 = complete death
Outline: as §2

[6] = tested on: large crabgrass (Digitaria sanguinalis, DIGSA); assay: Pre-emerge test, greenhouse herbicide activity screening; conditions: rated 14 days after application, 0 = no damage, 100 = complete death
Outline: as §1

[7] = tested on: barnyardgrass (Echinochloa crus-galli, ECHCG); assay: as above; conditions: rated 14 days after application, 0 = no damage, 100 = complete death
Outline: as §1

[8] = tested on: ivyleaf morningglory (Ipomoea hederacea, IPOHE); assay: as above; conditions: rated 14 days after application, 0 = no damage, 100 = complete death
Outline: as §1

[9] = tested on: lambsquarters (Chenopodium album, CHEAL); assay: as above; conditions: rated 14 days after application, 0 = no damage, 100 = complete death
Outline: as §1

[10] = tested on: sicklepod (Cassia obtusifolia, CASOB); assay: as above; conditions: rated 14 days after application, 0 = no damage, 100 = complete death
Outline: as §1

[11] = tested on: green foxtail (Setaria viridis, SETVI); assay: as above; conditions: rated 14 days after application, 0 = no damage, 100 = complete death
Outline: as §1

[12] = tested on: velvetleaf (Abutilon theophrasti, ABUTH); assay: as above; conditions: rated 14 days after application, 0 = no damage, 100 = complete death
Outline: as §1

[13] = tested on: common ragweed (Ambrosia artemisizfolia L., AMBEL); assay: as above; conditions: rated 14 days after application, 0 = no damage, 100 = complete death
Outline: as §1

[14] = tested on: johnsongrass (Sorghum halepense, SORHA); assay: as above; conditions: rated 14 days after application, 0 = no damage, 100 = complete death
Outline: as §1

[15] = tested on: redroot pigweed (Amaranthus retroflexus, AMARE); assay: Post-emerge test, greenhouse herbicide activity screening; conditions: post-emerge, 14 days after application, rating scale 0-100
Outline: as §2

[16] = tested on: large crabgrass (Digitaria sanguinalis, DIGSA); assay: as above; conditions: post-emerge, 14 days after application, rating scale 0-100
Outline: as §2

[17] = tested on: barnyardgrass (Echinochloa crus-galli, ECHCG); assay: as above; conditions: post-emerge, 14 days after application, rating scale 0-100
Outline: as §2

[18] = tested on: ivyleaf morningglory (Ipomoea hederacea, IPOHE); assay: as above; conditions: post-emerge, 14 days after application, rating scale 0-100
Outline: as §2

[19] = tested on: lambsquarters (Chenopodium album, CHEAL); assay: as above; conditions: post-emerge, 14 days after application, rating scale 0-100
Outline: as §2

[20] = tested on: sicklepod (Cassia obtusifolia, CASOB); assay: as above; conditions: post-emerge, 14 days after application, rating scale 0-100
Outline: as §2

[21] = tested on: green foxtail (Setaria viridis, SETVI); assay: as above; conditions: post-emerge, 14 days after application, rating scale 0-100
Outline: as §2

[22] = tested on: velvetleaf (Abutilon theophrasti, ABUTH); assay: as above; conditions: post-emerge, 14 days after application, rating scale 0-100
Outline: as §2

[23] = tested on: common ragweed (Ambrosia artemisizfolia L., AMBEL); assay: as above; conditions: post-emerge, 14 days after application, rating scale 0-100
Outline: as §2

[24] = tested on: johnsongrass (Sorghum halepense, SORHA); assay: as above; conditions: post-emerge, 14 days after application, rating scale 0-100
Outline: as §2

COc1c(Cl)cc(F)c(-n2c(=O)cc(C(F)(F)F)n(C)c2=O)c1NC(=O)c1ccc(F)c(F)c1 [2-48]
100: Pre-emerge Herbicidal Activity, phytotoxicity rating (0-100), AMARE ([3]; 63 g ai/ha) | Pre-emerge Herbicidal Activity, phytotoxicity rating (0-100), AMARE ([3]; 250 g ai/ha) | Pre-emerge Herbicidal Activity, phytotoxicity rating (0-100), DIGSA ([6]; 250 g ai/ha) | Pre-emerge Herbicidal Activity, phytotoxicity rating (0-100), ECHCG ([7]; 250 g ai/ha) | Pre-emerge Herbicidal Activity, phytotoxicity rating (0-100), IPOHE ([8]; 63 g ai/ha) | Pre-emerge Herbicidal Activity, phytotoxicity rating (0-100), IPOHE ([8]; 250 g ai/ha) | Pre-emerge Herbicidal Activity, phytotoxicity rating (0-100), CHEAL ([9]; 63 g ai/ha) | Pre-emerge Herbicidal Activity, phytotoxicity rating (0-100), CHEAL ([9]; 250 g ai/ha) | Pre-emerge Herbicidal Activity, phytotoxicity rating (0-100), CASOB ([10]; 63 g ai/ha) | Pre-emerge Herbicidal Activity, phytotoxicity rating (0-100), CASOB ([10]; 250 g ai/ha) | Pre-emerge Herbicidal Activity, phytotoxicity rating (0-100), SETVI ([11]; 63 g ai/ha) | Pre-emerge Herbicidal Activity, phytotoxicity rating (0-100), SETVI ([11]; 250 g ai/ha) | Pre-emerge Herbicidal Activity, phytotoxicity rating (0-100), ABUTH ([12]; 63 g ai/ha) | Pre-emerge Herbicidal Activity, phytotoxicity rating (0-100), ABUTH ([12]; 250 g ai/ha) | Pre-emerge Herbicidal Activity, phytotoxicity rating (0-100), AMBEL ([13]; 63 g ai/ha) | Pre-emerge Herbicidal Activity, phytotoxicity rating (0-100), AMBEL ([13]; 250 g ai/ha) | phytotoxicity rating AMARE ([15]; 250 g ai/ha) | phytotoxicity rating IPOHE ([18]; 63 g ai/ha) | phytotoxicity rating IPOHE ([18]; 250 g ai/ha) | phytotoxicity rating CHEAL ([19]; 250 g ai/ha) | phytotoxicity rating CASOB ([20]; 250 g ai/ha) | phytotoxicity rating ABUTH ([22]; 63 g ai/ha) | phytotoxicity rating ABUTH ([22]; 250 g ai/ha) | phytotoxicity rating AMBEL ([23]; 250 g ai/ha)
30: phytotoxicity rating SORHA ([24]; 63 g ai/ha)
85: Pre-emerge Herbicidal Activity, phytotoxicity rating (0-100), ECHCG ([7]; 63 g ai/ha) | phytotoxicity rating AMBEL ([23]; 63 g ai/ha)
99: Pre-emerge phytotoxicity rating (0-100), crop damage, RICE ([4]; 250 g ai/ha) | Pre-emerge phytotoxicity rating (0-100), crop damage, CORN ([5]; 250 g ai/ha)
60: phytotoxicity rating SORHA ([24]; 250 g ai/ha)
80: phytotoxicity rating RICE ([1]; 63 g ai/ha) | phytotoxicity rating ECHCG ([17]; 250 g ai/ha)
50: phytotoxicity rating CORN ([2]; 63 g ai/ha) | phytotoxicity rating CASOB ([20]; 63 g ai/ha)
90: Pre-emerge phytotoxicity rating (0-100), crop damage, RICE ([4]; 63 g ai/ha) | Pre-emerge phytotoxicity rating (0-100), crop damage, CORN ([5]; 63 g ai/ha)
86: phytotoxicity rating RICE ([1]; 250 g ai/ha)
95: Pre-emerge Herbicidal Activity, phytotoxicity rating (0-100), DIGSA ([6]; 63 g ai/ha) | Pre-emerge Herbicidal Activity, phytotoxicity rating (0-100), SORHA ([14]; 63 g ai/ha) | Pre-emerge Herbicidal Activity, phytotoxicity rating (0-100), SORHA ([14]; 250 g ai/ha) | phytotoxicity rating AMARE ([15]; 63 g ai/ha) | phytotoxicity rating CHEAL ([19]; 63 g ai/ha)
0: phytotoxicity rating DIGSA ([16]; 63 g ai/ha) | phytotoxicity rating ECHCG ([17]; 63 g ai/ha)
70: phytotoxicity rating CORN ([2]; 250 g ai/ha) | phytotoxicity rating SETVI ([21]; 250 g ai/ha)
20: phytotoxicity rating DIGSA ([16]; 250 g ai/ha) | phytotoxicity rating SETVI ([21]; 63 g ai/ha)

COc1c(Cl)cc(F)c(-n2c(=O)cc(C(F)(F)F)n(C)c2=O)c1NC(=O)c1cc(F)cc(F)c1 [2-50]
65: phytotoxicity rating RICE ([1]; 250 g ai/ha) | phytotoxicity rating AMBEL ([23]; 250 g ai/ha)
100: Pre-emerge Herbicidal Activity, phytotoxicity rating (0-100), AMARE ([3]; 63 g ai/ha) | Pre-emerge Herbicidal Activity, phytotoxicity rating (0-100), AMARE ([3]; 250 g ai/ha) | Pre-emerge Herbicidal Activity, phytotoxicity rating (0-100), DIGSA ([6]; 250 g ai/ha) | Pre-emerge Herbicidal Activity, phytotoxicity rating (0-100), ECHCG ([7]; 250 g ai/ha) | Pre-emerge Herbicidal Activity, phytotoxicity rating (0-100), IPOHE ([8]; 250 g ai/ha) | Pre-emerge Herbicidal Activity, phytotoxicity rating (0-100), CHEAL ([9]; 63 g ai/ha) | Pre-emerge Herbicidal Activity, phytotoxicity rating (0-100), CHEAL ([9]; 250 g ai/ha) | Pre-emerge Herbicidal Activity, phytotoxicity rating (0-100), CASOB ([10]; 250 g ai/ha) | Pre-emerge Herbicidal Activity, phytotoxicity rating (0-100), SETVI ([11]; 250 g ai/ha) | Pre-emerge Herbicidal Activity, phytotoxicity rating (0-100), ABUTH ([12]; 63 g ai/ha) | Pre-emerge Herbicidal Activity, phytotoxicity rating (0-100), ABUTH ([12]; 250 g ai/ha) | Pre-emerge Herbicidal Activity, phytotoxicity rating (0-100), AMBEL ([13]; 250 g ai/ha) | phytotoxicity rating AMARE ([15]; 250 g ai/ha) | phytotoxicity rating IPOHE ([18]; 63 g ai/ha) | phytotoxicity rating IPOHE ([18]; 250 g ai/ha) | phytotoxicity rating ABUTH ([22]; 63 g ai/ha) | phytotoxicity rating ABUTH ([22]; 250 g ai/ha)
30: Pre-emerge Herbicidal Activity, phytotoxicity rating (0-100), SORHA ([14]; 63 g ai/ha) | phytotoxicity rating DIGSA ([16]; 250 g ai/ha) | phytotoxicity rating ECHCG ([17]; 250 g ai/ha)
60: phytotoxicity rating RICE ([1]; 63 g ai/ha) | Pre-emerge Herbicidal Activity, phytotoxicity rating (0-100), CASOB ([10]; 63 g ai/ha) | Pre-emerge Herbicidal Activity, phytotoxicity rating (0-100), AMBEL ([13]; 63 g ai/ha) | phytotoxicity rating SETVI ([21]; 250 g ai/ha)
10: phytotoxicity rating CORN ([2]; 63 g ai/ha) | Pre-emerge Herbicidal Activity, phytotoxicity rating (0-100), ECHCG ([7]; 63 g ai/ha) | phytotoxicity rating DIGSA ([16]; 63 g ai/ha)
5: Pre-emerge phytotoxicity rating (0-100), crop damage, CORN ([5]; 63 g ai/ha)
80: Pre-emerge Herbicidal Activity, phytotoxicity rating (0-100), SORHA ([14]; 250 g ai/ha) | phytotoxicity rating CASOB ([20]; 63 g ai/ha)
40: phytotoxicity rating SETVI ([21]; 63 g ai/ha) | phytotoxicity rating AMBEL ([23]; 63 g ai/ha) | phytotoxicity rating SORHA ([24]; 250 g ai/ha)
70: phytotoxicity rating CORN ([2]; 250 g ai/ha) | Pre-emerge phytotoxicity rating (0-100), crop damage, CORN ([5]; 250 g ai/ha) | Pre-emerge Herbicidal Activity, phytotoxicity rating (0-100), DIGSA ([6]; 63 g ai/ha) | Pre-emerge Herbicidal Activity, phytotoxicity rating (0-100), IPOHE ([8]; 63 g ai/ha) | phytotoxicity rating CHEAL ([19]; 63 g ai/ha)
90: Pre-emerge phytotoxicity rating (0-100), crop damage, RICE ([4]; 250 g ai/ha) | Pre-emerge Herbicidal Activity, phytotoxicity rating (0-100), SETVI ([11]; 63 g ai/ha) | phytotoxicity rating AMARE ([15]; 63 g ai/ha) | phytotoxicity rating CHEAL ([19]; 250 g ai/ha) | phytotoxicity rating CASOB ([20]; 250 g ai/ha)
0: phytotoxicity rating ECHCG ([17]; 63 g ai/ha) | phytotoxicity rating SORHA ([24]; 63 g ai/ha)
25: Pre-emerge phytotoxicity rating (0-100), crop damage, RICE ([4]; 63 g ai/ha)
